Reference: patent publication US20220008499A1, “COMPOUNDS, COMPOSITIONS AND METHODS FOR TREATING SEPSIS” (FERRING B.V., priority 2018, published 2022)
Bridge positions count the residues as written; N and C are the ends. Square brackets hold non-standard residues; d marks the D form. Peptide text beside a SMILES is read from it. Orn(iPr) = CC(C)NCCC[C@H](N)C(=O)O; Aad = N[C@@H](CCCC(=O)O)C(=O)O

Assays:
[1] = test system: other receptors, ion channels, or transporters; settings: cited from earlier work
[2] = test system: patients with vasopressor-dependent sepsis and septic shock; test: randomized, placebo-controlled, adaptive clinical study of selepressin plus standard care; format: in vivo, human; parameters: Estimated 30-day mortality (up to day 30) / Estimated 30-day mortality, treatment difference vs placebo: concentration or dose not given beside the values; settings: for improvement in estimated VFDs compared with placebo (more): up to day 30; for Est P&VFDs: all patients / Estimated Pressor and Ventilator Free days (P&VFDs): all patients: all doses pooled; for Est % mortality, treatment difference vs placebo / Est P&VFDs: all patients, treatment difference vs placebo / Est P&VFDs: survivors, treatment difference vs placebo / Estimated P&VFDs: all patients, treatment difference vs placebo / Estimated 30-day mortality, treatment difference vs placebo / Estimated P&VFDs: survivors only, treatment difference vs placebo: selepressin minus placebo; for Estimated Pressor and Ventilator Free days (P&VFDs): all patients: up to Day 30
Text: The study described in the following examples was a randomized, placebo-controlled, seamless two-part, adaptive clinical study. […] The term “vasopressor-dependent sepsis” includes all patients with sepsis requiring vasopressor therapy. Septic shock includes patients with sepsis who require vasopressor therapy and who have a serum lactate concentration of ≥2 mmol/L.
The inclusion and exclusion criteria for the trial are set out below.
Inclusion Criteria • 18 years of age or older • Proven or suspected infection Septic shock defined as hypotension (systolic blood pressure less than 90 mm Hg or • Mean arterial pressure less than 65 mm Hg requiring vasopressor treatment (i.e., any dose of norepinephrine/noradrenaline base greater than […]) despite adequate fluid resuscitation (at least 1 litre for hypotension) • Informed consent obtained in accordance with local regulations
Exclusion Criteria • Unable to initiate treatment with selepressin or placebo within 12 h of onset of vasopressor treatment for septic shock • Primary cause of hypotension not due to sepsis • Previous severe sepsis with intensive care admission within this hospital stay • Known/suspected acute mesenteric ischemia • Suspicion of concomitant acute coronary syndrome based on clinical symptoms and/or electrocardiogram findings during this episode of septic shock • Chronic mechanical ventilation for any reason or severe chronic obstructive pulmonary disease (COPD) requiring either continuous daily oxygen use during the preceding 30 days or mechanical ventilation (for acute exacerbation of COPD) during the preceding 30 days • Received bone marrow transplant during the preceding 6 months or chemotherapy during the preceding 30 days for lymphoma or leukemia • Known to be pregnant Decision to limit full care taken before obtaining informed consent • Use of vasopressin in the past 12 hours before start of selepressin or placebo or use of terlipressin within 7 days of start of selepressin or placebo • Prior enrollment in the study • Prior use of an investigational medicinal product within the last month or planned or concurrent participation in a clinical trial for any investigational drug or investigational device
Additional Criteria that Must be Met at the Time of the Start of the Infusion of Selepressin or Placebo • Received a minimum of 30 ml/kg fluid in total from the onset of hypotension (not required if there is evidence of adequate fluid repletion or overload) • Received a continuous infusion of norepinephrine/noradrenaline base greater than […] for at least 1 h and is still receiving at least […] norepinephrine/noradrenaline base • Less than 12 h since onset of vasopressor treatment for septic shock
The targeted study population is a typical sample of patients presenting with vasopressor-dependent sepsis, defined by failing to respond to intravenous fluid replacement and requiring vasopressors for at least 1 hour, in whom treatment with selepressin or placebo could be initiated within 12 hours of the initiation of vasopressors.
The study drug was the continuous intravenous infusion of either the experimental agent or a matching placebo. In all instances, subjects received study infusion and standard care. The possible treatment arms were: Placebo; selepressin starting infusion rate 1.7 ng/kg/min to maximum 2.5 ng/kg/min; selepressin starting 2.5 ng/kg/min to maximum 3.75 ng/kg/min; selepressin starting 3.5 ng/kg/min to maximum 5.25 ng/kg/min; and selepressin starting 5.0 ng/kg/min to 7.5 ng/kg/min. […] This latter approach sought to wean all other vasoactive agents as soon as possible, and in a specified order, beginning with any open-label vasopressor other than norepinephrine, followed by norepinephrine, and finally the blinded study infusion. All patients received the study infusion until recovery from the need of vasopressor treatment or for 30 days, whichever came first. […]

[3] = target: human vasopressin V1a receptor (Homo sapiens, UniProt P37288); settings: relative to the V1b, V2, and oxytocin receptors; cited from earlier work
Chain of human vasopressin V1a receptor (P37288 whole entry): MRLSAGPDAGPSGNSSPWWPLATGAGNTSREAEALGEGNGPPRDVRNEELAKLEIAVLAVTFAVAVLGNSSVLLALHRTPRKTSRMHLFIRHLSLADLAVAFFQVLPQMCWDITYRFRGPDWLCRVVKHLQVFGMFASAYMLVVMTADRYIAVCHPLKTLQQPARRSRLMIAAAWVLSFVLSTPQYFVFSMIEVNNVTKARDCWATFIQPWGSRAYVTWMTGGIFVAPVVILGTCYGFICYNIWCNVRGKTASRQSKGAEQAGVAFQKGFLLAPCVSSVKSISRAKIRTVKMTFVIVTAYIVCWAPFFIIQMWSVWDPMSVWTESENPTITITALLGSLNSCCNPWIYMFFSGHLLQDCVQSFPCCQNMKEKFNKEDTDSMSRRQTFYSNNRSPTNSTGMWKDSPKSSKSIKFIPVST

[4] = test system: patients with septic shock; settings: cited from earlier work
[5] = baseline serum lactate <2 mmol/L, n = 184
[6] = baseline serum lactate <2 mmol/L
[7] = baseline serum lactate ≥2 mmol/L, n = 340
[8] = baseline serum lactate ≥2 mmol/L

SMILES: CC[C@H](C)[C@@H]1NC(=O)[C@H](Cc2ccccc2)NC(=O)[C@@H](N)CSSC[C@@H](C(=O)N2CCC[C@H]2C(=O)N[C@@H](CCCNC(C)C)C(=O)NCC(N)=O)NC(=O)[C@H](CC(N)=O)NC(=O)[C@H](CCCC(N)=O)NC1=O [Selepressin, selepressin] (H-CFI[Aad](NH2)NCP[Orn(iPr)]G-NH2; disulfide 1-6)
- affinity for other receptors, ion channels, or transporters [1]: no known affinity
- mortality and patient outcomes (pressor and mechanical ventilator free days) ([2]; PaO2/FiO2 greater than about 200 prior to treatment): improved mortality and improved patient outcomes
- mortality and patient outcomes (P&VFDs) ([2]; administered within six hours from when the patient requires vasopressor therapy): improved mortality and improved patient outcomes
- improvement in estimated VFDs compared with placebo (more) ([2]; baseline PaO2/FiO2 200-300 mmHg, FIG. 1): 2.1
- outcomes (VFDs) compared with placebo ([2]; baseline PaO2/FiO2 <100 mmHg, FIG. 1): slightly worse
- improvement in estimated VFDs compared with placebo (more) ([2]; baseline PaO2/FiO2 ≥300 mmHg, FIG. 1): 4.8
- Est % mortality [2, 5]: 21.39%
- Est P&VFDs: all patients [2, 5]: 17.53
- Est % mortality, treatment difference vs placebo [2, 6]: −6.32%
- Est P&VFDs: all patients, treatment difference vs placebo [2, 6]: 2.34
- Est P&VFDs: survivors [2, 6]: 22.30
- Est P&VFDs: survivors, treatment difference vs placebo [2, 6]: 1.29
- Est % mortality [2, 7]: 40.04%
- Est P&VFDs: all patients [2, 7]: 13.87
- Est % mortality, treatment difference vs placebo [2, 8]: 3.96%
- Est P&VFDs: all patients, treatment difference vs placebo [2, 8]: −0.67
- Est P&VFDs: survivors [2, 8]: 23.14
- Est P&VFDs: survivors, treatment difference vs placebo [2, 8]: 0.38
- improvement in mortality compared with placebo (less) ([2]; serum lactate <2 mmol/L at baseline): 6.32%
- mortality and patient outcomes (P&VFDs) ([2]; serum lactate less than about 2 mmol/L prior to treatment): improved mortality and improved patient outcomes
- Estimated Pressor and Ventilator Free days (P&VFDs): all patients ([2]; treatment <6 hours from when patient required vasopressor, n = 147): 14.56 days
- Estimated P&VFDs: all patients, treatment difference vs placebo ([2]; treatment <6 hours from when patient required vasopressor): 2.08 days
- Estimated 30-day mortality (up to day 30) ([2]; treatment <6 hours, n = 147): 35.73%
- Estimated 30-day mortality, treatment difference vs placebo ([2]; treatment <6 hours): −6.57%
- Estimated Pressor and Ventilated Free Days (P&VFDs): survivors only ([2]; treatment <6 hours): 22.66 days
- Estimated P&VFDs: survivors only, treatment difference vs placebo ([2]; treatment <6 hours): 1.02 days
- improvement in mortality compared with placebo (less) ([2]; treatment between zero and up to six hours from when patient required vasopressor): 6.57%
- Estimated 30-day mortality (up to day 30) ([2]; treatment ≥6 hours, n = 415): 33.79%
- Estimated Pressor and Ventilator Free days (P&VFDs): all patients ([2]; treatment ≥6 hours, n = 415): 15.59 days
- Estimated 30-day mortality, treatment difference vs placebo ([2]; treatment ≥6 hours): 2.91%
- Estimated P&VFDs: all patients, treatment difference vs placebo ([2]; treatment ≥6 hours): -0.05 days
- Estimated Pressor and Ventilated Free Days (P&VFDs): survivors only ([2]; treatment ≥6 hours): 23.55 days
- Estimated P&VFDs: survivors only, treatment difference vs placebo ([2]; treatment ≥6 hours): 0.92 days
- affinity and selectivity for V1a receptor [3]: high affinity and selectivity

SMILES: NC(=O)CC[C@@H]1NC(=O)[C@H](Cc2ccccc2)NC(=O)[C@H](Cc2ccc(O)cc2)NC(=O)[C@@H](N)CSSC[C@@H](C(=O)N2CCC[C@H]2C(=O)N[C@@H](CCCN=C(N)N)C(=O)NCC(N)=O)NC(=O)[C@H](CC(N)=O)NC1=O [vasopressin]
- overall mortality compared with norepinephrine ([4]; all patients): not different
- mortality compared with norepinephrine ([4]; patients requiring 5-14 ug/min of norepinephrine at enrollment): decreased mortality
